Experimental data from patent US10849935B2, “Method to suppress the systemic toxicity of chemotherapeutic drugs” (United Arab Emirates University, priority 2013, dated 2020).
“And” between values parts separate entries of the source, which are not always exact repeats. Identical values can stand only once. Like-named read-outs stand apart in the source and are kept apart here.

Key:
[1] = tested on: 4T1 metastatic breast cancer; experiment: 4T1 metastatic breast adenocarcinoma model: growth and survival; format: in vivo, BALB/c mice
Method: Two different syngeneic tumor models were used in this study, namely, MC38 colorectal cancer and 4T1 metastatic breast adenocarcinoma.
For the 4T1 breast cancer cells, BALB/c mice were implanted orthotopically in the mammary fat pad with 1×10^6 cancer cells/mouse.
For the colon and breast cancer models, mice bearing tumors were treated with (1) saline (control), (2) manuka honey (50% w/v), (3) Oxaliplatin at 6 mg/kg or (4) manuka honey (50% w/v)+Oxaliplatin (6 mg/kg). The manuka honey (50% w/v) was given intravenously (i.v.) twice per week. Oxaliplatin 6 mg/kg was administered intraperitoneally (i.p.) once per week. The total treatment period was 3 weeks.

B16.F1 cells = experiment: Annexin V-FITC / PI flow cytometry (apoptosis); format: cell-based, mouse; settings: taxol 10 ng/ml, 24 hr
Text: The results are representative of three independent experiments.

[2] = tested on: caspase 3/7 in B16.F1 melanoma cells; experiment: Caspase 3/7 enzymatic activity in treated cells; format: cell-based, mouse; settings: paclitaxel 10 ng/ml, 24 hr
Method: (§1) B16.F1 melanoma cells were treated with manuka honey (5% w/v), taxol (10 or 50 ng/ml) or medium as control. After 24 hr of culture, enzymatic activity of caspase 3/7 (FIG. 3A) and caspase 8 (FIG. 3B) were determined using specific kits and following manufacturer's recommendation. The data is presented as fold increase in caspase activity after normalization to the number of viable cells per culture. FIG. 3C. Western blot analysis of caspase-9 activation B16.F1 cells treated with manuka honey or taxol. […] Protein extracts were resolved on 10% SDS-PAGE and immunoblotted with caspase-9-specific ployclonal antibody capable of detecting both full length and cleaved forms of caspase-9. The cell extracts were also probed with an antibody against β-actin as a control for protein loading.
(§2) A critical component for the initiation of the apoptosis pathway is the sequential recruitment of a number of caspases leading to the activation of the effector caspase-3. This, in turn, leads to the cleavage of a number of vital cellular substrates required for cell viability. Next explored was the mechanism of apoptosis induction in manuka honey-treated cancer cells.

[3] = tested on: caspase 8 in B16.F1 melanoma cells; experiment: Caspase 8 enzymatic activity in treated cells; format: cell-based, mouse; settings: paclitaxel 10 ng/ml, 24 hr
Method: as §1, §2

[4] = tested on: caspase-9 in B16.F1 cells; experiment: Western blot of caspase-9 activation; format: cell-based, mouse; settings: paclitaxel 10 ng/ml, 24 hr
Method: as §1

Bcl-2 in B16.F1 cells = experiment: Western blot of Bcl-2 expression; format: cell-based, mouse; settings: taxol 50 ng/ml
Method: (§3) FIGS. 4A-4C. Manuka honey induces late apoptotic events in cancer cells. FIG. 4A. B16.F1 cells were incubated for 24 hr or 72 hr in the absence or presence of Manuka honey (M; 5%) or taxol (T; 50 ng/ml). Whole cell extracts (100 μg/lane) were resolved on 10% SDS-PAGE followed by Western blotting with an antibody specific to Bcl-2. FIG. 4 B. Cells were treated for 24 hr or 72 hr with the indicated concentrations of manuka honey (0.6%-5.0%) or taxol (50 ng/ml). Whole cell extracts (100 μg/lane) were resolved on 10% SDS-PAGE followed by Western blotting with a PARP-specific antibody. The full-length (116 kD) and cleaved (89 kD) forms of PARP are indicated. The cell extracts were also probed with an antibody against β-actin as a control for loading. FIG. 4C. Following treatment for 72 hr, cells were lysed and DNA extracted by centrifugation and phenol-chloroform extraction. Extracted DNA was resolved on 1.5% agarose gel and stained with ethidium bromide to visualize the oligonucleosomal fragments. The results are representative of two independent experiments.
Bcl-2 is a member of a large family of cell survival-regulating proteins consisting of both proand anti-apoptotic regulators. […] Therefore the level of Bcl-2 expression in B16.F1 cells following treatment with manuka honey or taxol was determined.

PARP in B16.F1 cells = experiment: Western blot of PARP cleavage; format: cell-based, mouse; settings: taxol 50 ng/ml, 24 hr
Method: as §3
One of the target proteins for active caspase-3 is the DNA repair enzyme poly(ADP-ribose) polymerase (or PARP). […]

[5] = tested on: caspase 3-positive (apoptotic) tumor cells; experiment: Caspase 3 immunohistochemistry of tumor sections; format: in vivo; settings: tumors of treated melanoma-bearing mice, mean±SEM
Method: Tumor tissue sections were prepared after treatment with saline (FIG. 11A), manuka honey (FIG. 11B), paclitaxel (FIG. 11C) or manuka honey+paclitaxel (FIG. 11D) and stained using caspase 3-specific antibody. Representative images at high magnification (bar=50 μm) are shown. Arrows indicate representative, brown-staining, apoptotic cells. Necrotic regions are also indicated (n). The results are representative of two independent experiments. (FIG. 11E) Quantitative estimation of the number of caspase-3 positive cells in tumor sections of different treatment groups. The data is shown as the mean±SEM of the number of positive cells per high power field. Tumors were obtained from 2-3 mice per treatment group and multiple sections were made from each tumor tissue. The number of positive cells was determined by counting the number of cells in 20 high power fields per section.
Tumor tissue sections were prepared from tumors obtained from animals treated with manuka honey, paclitaxel, manuka honey plus paclitaxel or saline as control. […] By counting the number of caspase 3-positive cells in a random selection of 10-20 high power fields (hpf), a quantitative estimate of apoptotic cell number could be achieved.

[6] = tested on: glutathione (GSH) in liver, spleen and kidney; settings: 2 injections per week for 3 weeks
Method: Animals were treated with saline, paclitaxel, manuka honey or manuka honey plus paclitaxel. At the end of a 3-week treatment, animals were sacrificed and organs removed for toxicity determination. The levels of glutathione (GSH) in the liver (FIG. 12A) spleen (FIG. 12B) and kidney (FIG. 12C) were determined. The data represent the mean±SEM of a minimum of 3 determinations per experimental group. For all panels, asterisks denote significant differences between the indicated groups (*, p<0.05; **, p<0.01; ***, p<0.001).
Groups of mice were injected with manuka honey, paclitaxel, manuka honey plus paclitaxel or saline for a total period of 3 weeks (2 injections per week). The animals were then sacrificed and their organs (liver, spleen, and kidney) obtained and analyzed for the levels of glutathione (GSH), a major antioxidant effector.

B16.F1 melanoma cells = experiment: Cell viability, CellTiter-Glo luminescent assay, B16.F1
Method: Skin cancer cells (B16.F1 cell line) (FIGS. 1A-1C), colon cancer cells (CT26 cell line) (FIGS. 1D, 1E) and breast cancer cells (MCF-7 cell line) (FIGS. 1F, 1G) were plated at 5×10^3 cells per well and incubated for 24 hr (FIGS. 1A, 1D, 1F), 48 hr (FIG. 1B) or 72 hr (FIGS. 1C, 1E, 1G) in the absence or presence of the indicated concentrations of manuka honey (range 0.3% to 5.0% w/v), or taxol (10 ng/ml or 50 ng/ml final concentration). At the end of the incubation period, cell viability was determined using CellTiter-Glo luminescent assay. Results are expressed as percentage viability in treated cell cultures compared to control, untreated, cells and are representative of 3 (for B16.F1 cells) or 2 (for CT26 and MCF-7 cells) independent experiments. Asterisks denote statistically significant differences in viability of experimental groups compared to control (*, p<0.05; **, p<0.01; ***, p<0.001).
The potential effect of manuka honey on cancer cell proliferation was investigated using three tumor cell lines differing in type and origin, the murine melanoma (B16.F1) and colon carcinoma (CT26) cells and the human breast cancer (MCF-7) cell line. Cells were incubated with different concentrations of manuka honey (range 0.3 to 2.5% w/v) for 24-72 hrs. As a positive control, cells were cultured with taxol at a final concentration of 10 or 50 ng/ml.

B16.F1 melanoma tumor = settings: for inhibition of tumor growth vs saline control: day 18 post treatment
Method: The activity of manuka honey was evaluated in B16.F1 melanoma tumor model. Mice were divided in four groups and treated by intravenous administration (100-200 μl 2 times per week for up to 3 weeks) of manuka honey alone, at either 5%, 10% or 20% w/v, or saline as a control. Tumor volume and animal survival were followed for up to 3 weeks post treatment initiation.
The antitumor activity of manuka honey was evaluated in the syngeneic B16.F1 melanoma tumor model. C57BL/6 mice with established tumors (mean>50 mm3) were divided into four groups and treated by intravenous administration (2 times per week for up to 3 weeks) of manuka honey alone (50% w/v), taxol alone (10 mg/kg), manuka honey (50% w/v) plus taxol (10 mg/kg) or saline as a control. Tumor volume and animal survival were followed for up to 3 weeks post treatment initiation. […] The effect of the various treatments on animal survival was also followed (FIG. 8B).
C57BL/6 mice with established tumors (mean>50 mm^3) were divided into four groups and treated by intravenous administration (2 times per week for up to 3 weeks) of manuka honey alone (50% w/v), taxol alone (5 mg/kg), manuka honey (50% w/v) plus taxol (5 mg/kg) or saline as a control. Tumor volume and animal survival were followed for up to 3 weeks post treatment initiation.
In a further experiment the mice were divided into four groups and treated by intravenous administration (2 times per week for up to 3 weeks) of manuka honey alone (50% w/v), taxol alone (8 mg/kg), manuka honey (50% w/v) plus taxol (8 mg/kg) or saline as a control. Tumor volume and animal survival were followed for up to 3 weeks post treatment initiation.
One syngeneic tumor model was used in this study, namely the B16.F1 melanoma (skin cancer) model. […] The procedure for tumor implantation is briefly as follows, C57BL/6 (8-10 mice per group) were inoculated subcutaneously in the right flank with 2×10^5 B16.F1 melanoma cells and staged to day 12-14.
Tumor growth was followed by quantitative determination of tumor volume, measured as the product of the perpendicular diameters using digital calipers, according to the formula: volume=L×W^2/2. For the B16.F1 model, once tumors were established, mice were given intravenous (i.v.) doses (100 μl per injection) of (1) saline (control), (2) 50% (w/v) manuka honey (MH) suspension in sterile saline, (3) paclitaxel (at doses of 5 or 8 mg/kg body weight) or (4) MH (50% w/v)+paclitaxel. All treatments were routinely administered twice per week, using freshly prepared reagents. Tumor growth and animal survival were followed for the subsequent 50 days.

[7] = manuka honey 50% w/v, taxol 10 mg/kg, i.v. 2 times per week

O=C1[O][Pt]2([NH][C@@H]3CCCC[C@H]3[NH]2)[O]C1=O [Oxaliplatin]
effect on cancer growth and animal survival ([1]; Oxaliplatin 6 mg/kg, MH 50% w/v): only a marginal effect on cancer growth and animal survival
percentage survival ([1]; day 50, Oxaliplatin 6 mg/kg i.p. once per week, manuka honey 50% w/v i.v. twice per week, 3 weeks): 22%

CC(=O)O[C@H]1C(=O)[C@@]2(C)[C@H]([C@H](OC(=O)c3ccccc3)[C@]3(O)C[C@H](OC(=O)[C@H](O)[C@@H](NC(=O)c4ccccc4)c4ccccc4)C(C)=C1C3(C)C)[C@]1(OC(C)=O)CO[C@@H]1C[C@@H]2O [taxol, paclitaxel]
Annexin V-positive (apoptotic) cells (B16.F1 cells): 32.8%
late apoptotic cells (positive for both Annexin V-FITC and PI), % of total (B16.F1 cells): 3.9%
increase in caspase 3/7 activity [2]: 2 fold
increase in caspase-8 activity [3]: 2 fold
induction of caspase-9 [4]: No evidence for induction of caspase-9
Bcl-2 expression (Bcl-2 in B16.F1 cells; 24 hr): substantially decreased
Bcl-2 expression (Bcl-2 in B16.F1 cells; 72 hr): undetectable
cleavage of PARP into the 89 kD fragment (PARP in B16.F1 cells): cleavage of PARP into the 89 kD fragment was evident
number of caspase 3-positive cells per high power field in tumor sections [5]: 11.7±1.8 per hpf
organ GSH levels (liver, spleen, kidney) [6]: marked decrease in organ GSH levels
viability of B16.F1 cells, % of control (B16.F1 melanoma cells; taxol 10 ng/ml, 24 hrs): 90%
viability of B16.F1 cells, % of control (B16.F1 melanoma cells; taxol 10 ng/ml, 72 hrs): 64%
viability of B16.F1 cells, % of control (B16.F1 melanoma cells; taxol 50 ng/ml, 24 hrs): 83%
viability of B16.F1 cells, % of control (B16.F1 melanoma cells; taxol 50 ng/ml, 72 hrs): 34%
inhibition of tumor growth vs saline control (B16.F1 melanoma tumor; [7]): ~61%
inhibition of tumor growth vs saline control (B16.F1 melanoma tumor; manuka honey 50% w/v, taxol 10 mg/kg, i.v. 2 times per week, listed as paclitaxel): 60% and 61%
survival of tumor-bearing mice (B16.F1 melanoma tumor; day 25, paclitaxel 5 mg/kg, MH 50% w/v): no significant difference in animal survival
percentage survival (B16.F1 melanoma tumor; day 25, paclitaxel 8 mg/kg, manuka honey 50% w/v): 36% and 36.4%
overall survival at end of observation period (B16.F1 melanoma tumor; day 25 post treatment, manuka honey 50% w/v, taxol 10 mg/kg): 20%
day after initiation of treatment at which inhibition/delay of tumor growth was first observed (B16.F1 melanoma tumor; [7]): 7 days
effect on tumor growth (FIG. 13) (B16.F1 melanoma tumor; paclitaxel 5 mg/kg, MH 50% w/v, i.v. twice per week): no effect of tumor growth
effect on tumor growth (FIGS. 17, 18) (B16.F1 melanoma tumor; paclitaxel 8 mg/kg, MH 50% w/v, i.v. twice per week): intermediate effect on reducing tumor growth
median survival (B16.F1 melanoma tumor; post treatment, manuka honey 50% w/v, taxol 10 mg/kg, i.v. 2 times per week): 20 days
tumor volume and survival vs saline (FIG. 9) (B16.F1 melanoma tumor; taxol 5 mg/kg, manuka honey 50% w/v, i.v. 2 times per week, 14 days post-treatment): ineffective at reducing tumor volume
